In data set [1] the test system is 5×-UPRE luciferase reporter (XBP-1s). Description: 5×-UPRE luciferase reporter assay, HT1080 cells. Type of data set: cell-based, human. As to the method: HT1080 cells stably expressing the XBP-luciferase construct were grown in 60 mm dishes to 60-70% confluency. Following hypoxia treatment, cells were washed twice with PBS, lysed in 400 μl 1× reporter lysis buffer (RLB) (Promega, Madison Wis.) for 30 min at 24° C. Lysates (100 μl) were mixed with an equal volume of luciferase substrate (Promega), and assayed using a luminometer. For 5×-UPRE-luciferase reporter assays, cells were co-transfected with the appropriate reporter plasmid and a control plasmid (pSV40-beta-gal) using Lipofectamine 2000 (Invitrogen, San Diego, Calif.). Twenty-four hours after transfection, fresh media was added, and cells were treated with Tm or shifted to hypoxia. After treatment, cells were lysed in 1×RLB and analyzed for luciferase activity as described above. Beta-galactosidase activity was determined using the beta-galactosidase enzyme assay system (Promega).
A. XBP-luciferase reporter construct. Firefly luciferase was inserted downstream of the IRE1α splice site in human XBP-1 to enable the conditional translation of luciferase under ER stress in an IRE1α-dependent manner. B. Selective inhibition of the XBP-luciferase reporter by irestatin 9389. HT1080 human fibrosarcoma cells stably expressing the XBP-luciferase reporter or CMV-luciferase were cultured in the presence of Tm (4 μg/ml) and Tg (0.4 μM) and irestatin 9389 at the indicated concentrations. After 24 hours, luciferase activity was analyzed in an automated plate reader. For each cell line, values are expressed as the percent inhibition of the median for Tm/Tg-treated wells, corrected for background. C. Structure of irestatin 9389. […] Values are expressed as the fold increases over uninduced levels. […] Cells were harvested, lysed, and analyzed by immunoblotting with antisera specific for HIF-1α (top), XBP-1s (middle) or actin (bottom). […] Total RNA was analyzed by Northern blotting using radiolabeled probes specific for P58^IPK or DER-1. […]
Since these assays employed a chimeric XBP-luciferase substrate, we next determined whether irestatin 9389 could inhibit the function of endogenous XBP-1s. […]
(Reporter assays use an easily measured gene product as a stand-in for the process of interest.)

For data set [2], the system named is HT1080 s.c. tumor xenografts. Type of data set: in vivo. As to the method: Female 4-6 week-old SCID (B6.CB 17) mice supplied by Stanford University Animal Facility were housed in the same facility (American Association of Laboratory Animal Care-approved) with 12 hour light cycles. Food and water were provided ad libitum. All experiments were approved by the institutional care and use committee. The potential toxicities of irestatin 9389 were examined in SCID mice injected i.p. once daily over 4 consecutive days with increasing doses of irestatin 9389 or vehicle control. […] For xenografts, 2×10^6 HT1080 fibrosarcoma cells were resuspended in 50-75 μl PBS and injected s.c. in the dorsal flanks of host mice. When the implanted tumors reached a mean volume of ˜150 mm^3, mice were randomly assigned into different treatment groups. Mice were dosed by i.p. bolus injection with either vehicle (50% DMSO, 20% cremophor EL, 30% ethanol) or irestatin 9389 (50 mg/kg). Tumors (6-8 per group) were measured every 2-4 days with calipers. Tumor volume was calculated using the formula [(W^2×L) 0.52] where W=width and L=length.
A. Irestatin 9389 impairs IRE1α activity in implanted tumor xenografts. Equal numbers (2×10^6) of XBP-luciferase or CMV-luciferase reporter cells were implanted s.c. into SCID mice. After one week, mice were treated with irestatin 9389 (50 mg/kg), followed by optical bioluminescence imaging. B. Inhibition of tumor growth by irestatin 9389. HT1080 s.c. tumor xenografts were established in SCID mice and allowed to reach a mean volume of 150 mm^3 before treatment. Irestatin 9389 (50 mg/kg) or vehicle control was administered q 2d by i.p. injection and continued for 2 weeks, for a total of 6 doses. Tumor volumes were calculated based on caliper measurements taken every 3-5 days. Data points represent the mean volume calculated from at least 7 tumors per group, with SEM shown in one direction. Mean mouse weights+/−SEM are shown in bottom graph. C.
Next, we tested if treatment with irestatin 9389 could have a direct impact on tumor growth. […]

As to `Cc1csc(NC(=O)CSc2nc3c(c(C(F)(F)F)c2C#N)CCC3)n1` [Compound 9389], the “diminution of hypoxia-induced UPRE luciferase response” value in data set [1] (48 hours of hypoxia (vehicle 170-fold)) is listed as “more than 90%”. In data set [1] (cells exposed to both Tm and irestatin 9389), the “induction of 5×-UPRE luciferase activity over untreated cells” value was less than 4 fold. The antitumor effects result in data set [2] (50 mg/kg i.p. every other day, 6 doses) is listed as “significant cytostatic antitumor effects”. The mean tumor volume in data set [2] (50 mg/kg i.p. every other day, 6 doses, one week after the last treatment, P<0.01) is 480+/−210 mm^3. Also, in data set [2] (mouse, in vivo), the “weight loss compared to vehicle-treated mice” value is “did not exhibit significant long-term weight loss”.

These data come from patent US20130150399A1, “INHIBITORS OF THE UNFOLDED PROTEIN RESPONSE AND METHODS FOR THEIR USE” (The Board of Trustees of the Leland Stanford Junior …, priority 2006, published 2013).
